Assay results taken from patent publication US10604524B2, “Pyrropyrimidine compounds as MNKs inhibitors” (LIFEARC, priority 2015, dated 2020).

Columns and labels:
Assay in all cases: Kinase selectivity screen
[1] = target: MKNK2 (Homo sapiens, UniProt Q9HBH9); format: biochemical; settings: 1 μM compound
[2] = target: PTK2 (Homo sapiens, UniProt Q05397); settings: read-out: % Inhibition PTK2
[3] = target: PTK6 (Homo sapiens, UniProt Q13882); settings: read-out: % Inhibition PTK6
[4] = target: EPHB1 (Homo sapiens, UniProt P54762); settings: read-out: % Inhibition EPHB1
Chain of EPHB1 (P54762 18-984, species assumed): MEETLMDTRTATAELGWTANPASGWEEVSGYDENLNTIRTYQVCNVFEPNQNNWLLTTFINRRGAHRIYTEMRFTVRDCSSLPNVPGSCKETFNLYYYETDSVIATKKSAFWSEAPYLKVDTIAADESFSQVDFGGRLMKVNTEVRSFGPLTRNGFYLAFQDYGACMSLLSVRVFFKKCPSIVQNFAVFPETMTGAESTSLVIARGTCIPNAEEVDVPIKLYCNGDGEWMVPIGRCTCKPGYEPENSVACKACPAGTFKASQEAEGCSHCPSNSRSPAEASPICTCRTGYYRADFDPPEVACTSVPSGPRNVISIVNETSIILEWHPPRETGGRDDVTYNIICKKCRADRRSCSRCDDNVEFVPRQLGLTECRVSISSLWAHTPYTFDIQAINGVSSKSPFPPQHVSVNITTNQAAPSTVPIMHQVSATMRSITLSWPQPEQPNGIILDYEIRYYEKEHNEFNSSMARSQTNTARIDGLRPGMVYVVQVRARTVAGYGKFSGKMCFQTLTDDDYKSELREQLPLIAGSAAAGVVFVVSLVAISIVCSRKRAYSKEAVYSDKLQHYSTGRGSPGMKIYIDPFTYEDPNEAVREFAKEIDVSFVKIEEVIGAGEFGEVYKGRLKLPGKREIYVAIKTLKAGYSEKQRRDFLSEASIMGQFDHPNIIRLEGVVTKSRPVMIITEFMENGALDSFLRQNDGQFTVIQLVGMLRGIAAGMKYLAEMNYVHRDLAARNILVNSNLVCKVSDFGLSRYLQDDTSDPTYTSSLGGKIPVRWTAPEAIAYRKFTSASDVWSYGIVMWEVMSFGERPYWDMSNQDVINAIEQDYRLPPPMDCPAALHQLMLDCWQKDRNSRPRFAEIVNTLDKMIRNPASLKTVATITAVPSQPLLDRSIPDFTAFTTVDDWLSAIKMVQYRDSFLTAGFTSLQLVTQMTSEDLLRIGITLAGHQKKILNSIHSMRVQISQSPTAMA

[5] = target: TYRO3 (Homo sapiens, UniProt Q06418); settings: read-out: % Inhibition TYRO3
Chain of TYRO3 (Q06418 41-890, species assumed): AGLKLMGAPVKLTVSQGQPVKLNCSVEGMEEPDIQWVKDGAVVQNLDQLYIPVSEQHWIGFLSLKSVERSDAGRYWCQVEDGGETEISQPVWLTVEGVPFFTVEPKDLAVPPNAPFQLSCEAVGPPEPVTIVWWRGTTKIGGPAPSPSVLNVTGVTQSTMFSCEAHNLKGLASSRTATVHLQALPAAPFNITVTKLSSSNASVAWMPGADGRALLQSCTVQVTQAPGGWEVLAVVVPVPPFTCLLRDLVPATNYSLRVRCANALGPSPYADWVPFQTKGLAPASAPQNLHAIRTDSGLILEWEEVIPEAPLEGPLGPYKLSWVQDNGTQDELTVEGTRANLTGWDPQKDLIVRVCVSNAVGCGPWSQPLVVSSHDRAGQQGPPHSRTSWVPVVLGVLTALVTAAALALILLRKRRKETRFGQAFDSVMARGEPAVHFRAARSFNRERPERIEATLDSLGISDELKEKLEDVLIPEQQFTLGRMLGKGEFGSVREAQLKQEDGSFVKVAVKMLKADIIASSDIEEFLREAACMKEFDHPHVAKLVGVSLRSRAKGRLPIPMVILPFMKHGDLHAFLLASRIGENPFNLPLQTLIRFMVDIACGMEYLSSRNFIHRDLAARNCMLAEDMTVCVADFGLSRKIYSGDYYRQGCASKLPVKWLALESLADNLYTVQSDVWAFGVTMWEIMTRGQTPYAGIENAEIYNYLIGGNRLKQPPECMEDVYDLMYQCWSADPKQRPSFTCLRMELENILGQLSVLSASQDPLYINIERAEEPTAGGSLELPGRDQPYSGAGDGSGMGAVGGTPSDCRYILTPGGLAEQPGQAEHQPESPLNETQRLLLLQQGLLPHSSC

[6] = target: TBK1 (Homo sapiens, UniProt Q9UHD2); settings: read-out: % Inhibition TBK1
[7] = target: FES (Homo sapiens, UniProt P07332); settings: read-out: % Inhibition FES
Chain of FES (P07332 whole entry, species assumed): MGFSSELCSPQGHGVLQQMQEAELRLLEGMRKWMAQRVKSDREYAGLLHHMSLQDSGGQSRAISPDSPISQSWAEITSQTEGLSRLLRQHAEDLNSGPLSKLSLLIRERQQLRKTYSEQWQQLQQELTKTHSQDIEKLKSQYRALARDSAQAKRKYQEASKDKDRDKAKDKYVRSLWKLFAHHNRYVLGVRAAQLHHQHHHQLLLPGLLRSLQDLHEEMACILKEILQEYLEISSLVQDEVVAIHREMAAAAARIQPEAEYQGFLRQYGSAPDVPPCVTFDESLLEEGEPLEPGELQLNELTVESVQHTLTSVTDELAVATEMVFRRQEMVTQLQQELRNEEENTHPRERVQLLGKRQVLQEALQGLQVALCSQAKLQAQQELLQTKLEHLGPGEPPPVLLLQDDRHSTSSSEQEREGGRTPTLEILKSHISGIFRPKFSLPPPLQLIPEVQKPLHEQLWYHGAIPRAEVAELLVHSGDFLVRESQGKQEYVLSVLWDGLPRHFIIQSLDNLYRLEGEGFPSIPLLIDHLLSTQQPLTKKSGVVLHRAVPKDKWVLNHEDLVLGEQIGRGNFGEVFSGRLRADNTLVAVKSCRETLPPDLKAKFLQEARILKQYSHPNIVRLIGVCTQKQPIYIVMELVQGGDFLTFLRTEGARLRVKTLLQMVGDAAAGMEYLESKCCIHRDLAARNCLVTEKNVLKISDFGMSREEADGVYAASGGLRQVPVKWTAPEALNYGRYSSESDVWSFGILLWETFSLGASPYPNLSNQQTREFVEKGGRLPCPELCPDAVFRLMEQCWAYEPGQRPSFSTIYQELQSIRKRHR

[8] = target: FYN (Homo sapiens, UniProt P06241); settings: read-out: % Inhibition FYN
[9] = target: PDGFRB (Homo sapiens, UniProt P09619); settings: read-out: % Inhibition PDGFRB
[10] = target: CDK9/CCNT1 (Homo sapiens, UniProt P50750); settings: read-out: % Inhibition CDK9/CCNT1
[11] = target: AKT1 (Homo sapiens, UniProt P31749); settings: read-out: % Inhibition AKT1
Chain of AKT1 (P31749 whole entry, species assumed): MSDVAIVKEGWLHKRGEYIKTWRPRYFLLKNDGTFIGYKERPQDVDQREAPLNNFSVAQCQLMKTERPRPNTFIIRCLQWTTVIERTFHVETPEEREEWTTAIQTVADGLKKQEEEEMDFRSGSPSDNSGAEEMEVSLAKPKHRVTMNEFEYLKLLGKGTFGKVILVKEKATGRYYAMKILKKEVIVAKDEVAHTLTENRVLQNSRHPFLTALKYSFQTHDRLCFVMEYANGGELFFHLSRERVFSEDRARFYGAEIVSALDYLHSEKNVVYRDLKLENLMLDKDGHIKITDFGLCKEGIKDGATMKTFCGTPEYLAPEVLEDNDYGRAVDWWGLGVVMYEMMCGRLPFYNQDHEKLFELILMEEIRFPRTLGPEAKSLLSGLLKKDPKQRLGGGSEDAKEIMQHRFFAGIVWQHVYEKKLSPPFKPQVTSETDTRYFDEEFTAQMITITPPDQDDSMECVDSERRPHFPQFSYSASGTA

[12] = target: ABL1 (Homo sapiens, UniProt P00519); settings: read-out: % Inhibition ABL1
Chain of ABL1 (P00519 whole entry, species assumed): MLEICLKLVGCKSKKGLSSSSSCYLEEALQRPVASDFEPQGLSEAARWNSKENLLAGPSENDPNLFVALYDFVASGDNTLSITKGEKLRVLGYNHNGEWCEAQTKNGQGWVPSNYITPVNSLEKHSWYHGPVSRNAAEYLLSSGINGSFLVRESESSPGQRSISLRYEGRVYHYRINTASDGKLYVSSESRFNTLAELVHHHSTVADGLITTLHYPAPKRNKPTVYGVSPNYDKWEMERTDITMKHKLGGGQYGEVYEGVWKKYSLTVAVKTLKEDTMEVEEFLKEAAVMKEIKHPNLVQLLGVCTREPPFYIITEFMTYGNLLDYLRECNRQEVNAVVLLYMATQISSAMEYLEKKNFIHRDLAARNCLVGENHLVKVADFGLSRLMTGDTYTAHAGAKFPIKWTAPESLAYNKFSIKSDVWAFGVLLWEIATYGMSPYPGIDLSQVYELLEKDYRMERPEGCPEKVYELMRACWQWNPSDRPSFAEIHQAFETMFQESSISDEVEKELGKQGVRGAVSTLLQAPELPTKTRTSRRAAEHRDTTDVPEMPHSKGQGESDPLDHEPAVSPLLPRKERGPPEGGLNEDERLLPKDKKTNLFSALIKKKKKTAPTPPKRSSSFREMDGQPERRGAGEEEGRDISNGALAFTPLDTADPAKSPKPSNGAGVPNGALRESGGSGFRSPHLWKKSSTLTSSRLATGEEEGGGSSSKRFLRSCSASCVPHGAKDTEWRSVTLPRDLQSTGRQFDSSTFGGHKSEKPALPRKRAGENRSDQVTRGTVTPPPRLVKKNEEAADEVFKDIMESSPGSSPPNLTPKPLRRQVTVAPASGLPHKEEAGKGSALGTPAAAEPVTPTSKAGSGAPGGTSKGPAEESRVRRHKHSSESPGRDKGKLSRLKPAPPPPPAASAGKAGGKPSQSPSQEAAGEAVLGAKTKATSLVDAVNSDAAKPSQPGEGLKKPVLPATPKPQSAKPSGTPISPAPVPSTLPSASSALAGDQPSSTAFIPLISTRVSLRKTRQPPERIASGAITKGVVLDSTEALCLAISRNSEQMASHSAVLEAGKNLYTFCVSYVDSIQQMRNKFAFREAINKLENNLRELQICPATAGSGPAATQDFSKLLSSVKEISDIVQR

[13] = target: MST1R (Homo sapiens, UniProt Q04912); settings: read-out: % Inhibition MST1R
[14] = target: BMX (Homo sapiens, UniProt P51813); settings: read-out: % Inhibition BMX
Chain of BMX (P51813 whole entry, species assumed): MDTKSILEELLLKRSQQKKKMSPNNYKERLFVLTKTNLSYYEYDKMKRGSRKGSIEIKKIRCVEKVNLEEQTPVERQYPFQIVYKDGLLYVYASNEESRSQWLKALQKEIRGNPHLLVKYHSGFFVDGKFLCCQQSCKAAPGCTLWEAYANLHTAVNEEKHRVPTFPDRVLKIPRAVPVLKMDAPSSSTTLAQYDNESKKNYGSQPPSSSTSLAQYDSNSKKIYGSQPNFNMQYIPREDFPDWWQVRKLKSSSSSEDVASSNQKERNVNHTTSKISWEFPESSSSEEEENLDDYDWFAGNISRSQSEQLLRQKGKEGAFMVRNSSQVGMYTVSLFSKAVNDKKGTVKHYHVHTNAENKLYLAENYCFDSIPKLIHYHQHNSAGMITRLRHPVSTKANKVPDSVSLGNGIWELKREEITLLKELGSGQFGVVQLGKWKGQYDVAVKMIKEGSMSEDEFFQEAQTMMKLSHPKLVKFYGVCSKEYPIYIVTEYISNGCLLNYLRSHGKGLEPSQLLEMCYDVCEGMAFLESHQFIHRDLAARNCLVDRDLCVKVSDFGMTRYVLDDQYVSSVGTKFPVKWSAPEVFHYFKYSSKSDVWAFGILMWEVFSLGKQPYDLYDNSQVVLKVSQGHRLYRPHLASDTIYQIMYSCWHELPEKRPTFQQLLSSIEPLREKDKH

[15] = target: CDK1/CCNB1 (Homo sapiens, UniProt P06493); settings: read-out: % Inhibition CDK1/CCNB1
[16] = target: CSNK2A2 (Homo sapiens, UniProt P19784); settings: read-out: % Inhibition CSNK2A2

Measured: inhibition at 1 µM

CC(C)Oc1cc(F)ccc1Nc1ncnc2cc(C(=O)NCCCN(C)C)n(C)c12 [Example 40, N-[3-(dimethylamino)propyl]-4-{[4-fluoro-2-(propan-2-yloxy)phenyl]amino}-5-methyl-5H-pyrrolo[3,2-d]pyrimidine-6-carboxamide]
84%: [1]
5%: [7] | [9]
7%: [2]
0%: all other assays above
